Experimental findings from patent US20040092547A1, “Alkyl-[4-(difluorophenyl)-oxazol-5-yl]-triazolo-pyridines” (Pfizer Inc, priority 2002, published 2004) are described below.

`CC(C)c1nnc2ccc(-c3ocnc3-c3c(F)cccc3F)cn12` [Example 1, 6-[4-(2,6-Difluoro-phenyl)-oxazol-5-yl]-3-isopropyl-[1,2,4]triazolo[4,3-a]pyridine] came in with a melting point of 175.7 to 176.2 °C.

A word on the melting point: it is the temperature, or range, at which the solid turns liquid.
